From paper PMC10525854 (Biomedicines, 2023)
Converted amounts (≈) assume the structure as drawn.

Columns and labels:
[1] = Solubility of ACF in different media; type: physicochemical; conditions: thermodynamic from solid
Description: The mixture was shaken using a vortex mixer (Heidolph Instrument, D-91126 Schwabach, type RZR 2021, Bavaria, Germany) for 15 min, followed by storage at room temperature. After 24 h, the resulting solution was subjected to centrifugation at 3000 rpm for 5 min to separate the clear supernatant. A suitable sample solution was collected and diluted with absolute methanol. The diluted sample was filtered using Whatman 102 filter paper and further diluted with absolute methanol for the determination of the drug concentration in the saturated solution. Analysis of the samples was performed using a UV spectrophotometer (DU 640; Beckman, CA, USA) at a wavelength of 276 nm, with methanol as the blank reference.

[2] = test system: A375 human melanoma cell lines; experiment: Cytotoxicity SRB assay; type: cell-based; conditions: A-375, 48 h of incubation (method says 72 h)
Description: Cell viability was assessed by SRB assay as reported [47]. […] Melanoma cells were mixed with TCA (10%) and maintained at 4 °C for 1 h, then washed with D.W. Sulforhodamine B (70 μL) (0.4% w/v) was added and kept for 10 min. Plates were washed by 1% acetic acid 3 times and left to dry overnight. TRIS (150 μL) was added to dissolve the protein-bound SRB stain. Lastly, absorbance was determined by a star Omega microplate reader (BMGLABTECH®-FLUO, Ortenberg, Germany) at 540 nm [48, 49]. Cytotoxicity was expressed as (IC50), which was determined by plotting %viability against the concentration of the drug (five concentrations were used). IC50 values were calculated from the dose–response curve by the PRISM program.

solubility at 24 h ([1]; oil or lipid, citronellol oil, room temperature): 5.26 mg/mL (≈ 14.9 mM)
solubility at 24 h ([1]; organic solvent or mixture, Transcutol HP, room temperature): 300 mg/mL (≈ 848 mM)
solubility at 24 h ([1]; Tween 80, room temperature): 62.6 mg/mL (≈ 177 mM)
solubility at 24 h ([1]; water, room temperature): 0.071 mg/mL (≈ 0.2 mM)
Compound: O=C(O)COC(=O)Cc1ccccc1Nc1c(Cl)cccc1Cl [ACF, Aceclofenac]
IC50 [2]: 69.3 µg/mL (≈ 0.196 mM)
